The source made the active and inactive calls.
Assays:
P388 = test: cells; type: functional; settings: Mus musculus
P388/ADR = test: cells; type: functional; settings: Mus musculus
SN12K1 = test: cells; type: functional; settings: Homo sapiens
[1] = biological target: T1, Endoribonuclease toxin MazF (Escherichia coli K-12, UniProt P0AE70); test: substrate-only fluorescence increase artefacts – biochemical, single-stranded RNase substrate, counter-screen for MazEF activator project, dose response (AID 588502); type: functional
T1 sequence (P0AE70 whole entry): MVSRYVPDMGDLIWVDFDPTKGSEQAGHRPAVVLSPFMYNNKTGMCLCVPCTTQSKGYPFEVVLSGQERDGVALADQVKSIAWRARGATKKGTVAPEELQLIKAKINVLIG

[2] = biological target: T1, Endoribonuclease toxin MazF; test: activation of MazEF endoribonuclease cleavage – biochemical, fluorescence, single-stranded RNA substrate, uHTS hits, dose response (AID 588481); type: functional
Protein skinhead-1 = biological target: T2, Protein skinhead-1 (Caenorhabditis elegans, UniProt P34707); type: functional
T2 sequence (P34707 whole entry): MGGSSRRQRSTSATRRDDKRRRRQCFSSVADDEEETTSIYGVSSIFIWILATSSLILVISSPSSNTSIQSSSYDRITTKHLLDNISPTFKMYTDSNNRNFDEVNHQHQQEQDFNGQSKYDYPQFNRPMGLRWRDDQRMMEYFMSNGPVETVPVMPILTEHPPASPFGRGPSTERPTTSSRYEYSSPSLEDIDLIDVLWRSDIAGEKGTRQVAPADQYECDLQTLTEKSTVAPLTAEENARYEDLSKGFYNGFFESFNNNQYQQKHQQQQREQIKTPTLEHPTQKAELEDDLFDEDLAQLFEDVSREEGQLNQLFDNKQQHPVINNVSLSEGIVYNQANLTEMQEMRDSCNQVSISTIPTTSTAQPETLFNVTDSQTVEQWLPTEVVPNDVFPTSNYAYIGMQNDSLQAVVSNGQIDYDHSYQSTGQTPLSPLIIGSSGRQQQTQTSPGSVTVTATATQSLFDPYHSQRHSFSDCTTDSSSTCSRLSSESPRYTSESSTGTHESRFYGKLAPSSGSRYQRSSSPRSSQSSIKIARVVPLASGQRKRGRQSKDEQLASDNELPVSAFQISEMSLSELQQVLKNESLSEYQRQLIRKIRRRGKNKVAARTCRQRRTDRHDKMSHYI

[3] = biological target: T3, Sentrin-specific protease 7 (Homo sapiens, UniProt Q9BQF6); type: functional;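 note: Luminescence-based dose-response confirmation of ultra-high-throughput screening hits, measuring inhibition of SENP7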
T3 sequence (Q9BQF6 whole entry): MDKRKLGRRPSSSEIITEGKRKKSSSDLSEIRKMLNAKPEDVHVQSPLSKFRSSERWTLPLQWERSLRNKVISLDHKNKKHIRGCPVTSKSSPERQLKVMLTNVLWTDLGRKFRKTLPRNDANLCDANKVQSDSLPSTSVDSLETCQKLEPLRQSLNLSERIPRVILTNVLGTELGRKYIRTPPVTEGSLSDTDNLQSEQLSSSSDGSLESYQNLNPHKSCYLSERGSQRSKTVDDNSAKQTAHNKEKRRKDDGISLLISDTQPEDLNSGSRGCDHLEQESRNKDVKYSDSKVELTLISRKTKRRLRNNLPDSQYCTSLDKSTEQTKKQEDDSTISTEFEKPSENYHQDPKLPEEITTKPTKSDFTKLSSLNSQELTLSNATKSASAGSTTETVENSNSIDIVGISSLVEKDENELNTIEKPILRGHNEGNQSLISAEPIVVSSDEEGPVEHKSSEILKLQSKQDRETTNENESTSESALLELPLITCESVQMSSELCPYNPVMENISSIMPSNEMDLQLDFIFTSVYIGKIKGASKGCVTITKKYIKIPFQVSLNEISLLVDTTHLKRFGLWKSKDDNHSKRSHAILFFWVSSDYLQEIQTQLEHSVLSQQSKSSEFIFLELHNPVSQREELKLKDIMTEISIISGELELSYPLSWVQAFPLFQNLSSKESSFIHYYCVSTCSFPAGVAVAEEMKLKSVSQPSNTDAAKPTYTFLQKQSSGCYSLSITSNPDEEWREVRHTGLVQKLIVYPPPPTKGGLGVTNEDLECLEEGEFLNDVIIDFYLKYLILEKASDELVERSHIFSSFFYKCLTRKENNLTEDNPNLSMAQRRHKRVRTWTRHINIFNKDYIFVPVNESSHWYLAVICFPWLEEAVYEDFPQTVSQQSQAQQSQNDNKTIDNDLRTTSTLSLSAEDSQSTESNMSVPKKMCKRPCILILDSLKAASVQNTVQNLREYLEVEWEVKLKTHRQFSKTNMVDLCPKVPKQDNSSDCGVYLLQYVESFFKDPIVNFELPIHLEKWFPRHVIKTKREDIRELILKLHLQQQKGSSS

Caspase-3 = biological target: T4, Caspase-3 (Homo sapiens, UniProt P42574); type: functional;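 note: Dose-response selectivity test against caspase-3 for candidate inhibitors of sentrin-specific proteases (SENPs)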
T4 sequence (P42574 whole entry): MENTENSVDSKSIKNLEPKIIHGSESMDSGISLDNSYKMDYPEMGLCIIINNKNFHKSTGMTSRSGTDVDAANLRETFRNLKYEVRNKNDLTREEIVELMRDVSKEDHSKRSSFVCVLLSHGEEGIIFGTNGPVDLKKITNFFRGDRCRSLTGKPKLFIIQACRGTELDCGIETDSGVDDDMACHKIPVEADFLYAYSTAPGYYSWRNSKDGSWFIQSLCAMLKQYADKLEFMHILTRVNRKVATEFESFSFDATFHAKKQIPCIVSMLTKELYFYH

[4] = biological target: T5, Sentrin-specific protease 6 (Homo sapiens, UniProt Q9GZR1); type: functional;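 note: Luminescence-based dose-response confirmatory assay of SENP6 inhibition, following up an ultra-high-throughput screen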
T5 sequence (Q9GZR1 whole entry): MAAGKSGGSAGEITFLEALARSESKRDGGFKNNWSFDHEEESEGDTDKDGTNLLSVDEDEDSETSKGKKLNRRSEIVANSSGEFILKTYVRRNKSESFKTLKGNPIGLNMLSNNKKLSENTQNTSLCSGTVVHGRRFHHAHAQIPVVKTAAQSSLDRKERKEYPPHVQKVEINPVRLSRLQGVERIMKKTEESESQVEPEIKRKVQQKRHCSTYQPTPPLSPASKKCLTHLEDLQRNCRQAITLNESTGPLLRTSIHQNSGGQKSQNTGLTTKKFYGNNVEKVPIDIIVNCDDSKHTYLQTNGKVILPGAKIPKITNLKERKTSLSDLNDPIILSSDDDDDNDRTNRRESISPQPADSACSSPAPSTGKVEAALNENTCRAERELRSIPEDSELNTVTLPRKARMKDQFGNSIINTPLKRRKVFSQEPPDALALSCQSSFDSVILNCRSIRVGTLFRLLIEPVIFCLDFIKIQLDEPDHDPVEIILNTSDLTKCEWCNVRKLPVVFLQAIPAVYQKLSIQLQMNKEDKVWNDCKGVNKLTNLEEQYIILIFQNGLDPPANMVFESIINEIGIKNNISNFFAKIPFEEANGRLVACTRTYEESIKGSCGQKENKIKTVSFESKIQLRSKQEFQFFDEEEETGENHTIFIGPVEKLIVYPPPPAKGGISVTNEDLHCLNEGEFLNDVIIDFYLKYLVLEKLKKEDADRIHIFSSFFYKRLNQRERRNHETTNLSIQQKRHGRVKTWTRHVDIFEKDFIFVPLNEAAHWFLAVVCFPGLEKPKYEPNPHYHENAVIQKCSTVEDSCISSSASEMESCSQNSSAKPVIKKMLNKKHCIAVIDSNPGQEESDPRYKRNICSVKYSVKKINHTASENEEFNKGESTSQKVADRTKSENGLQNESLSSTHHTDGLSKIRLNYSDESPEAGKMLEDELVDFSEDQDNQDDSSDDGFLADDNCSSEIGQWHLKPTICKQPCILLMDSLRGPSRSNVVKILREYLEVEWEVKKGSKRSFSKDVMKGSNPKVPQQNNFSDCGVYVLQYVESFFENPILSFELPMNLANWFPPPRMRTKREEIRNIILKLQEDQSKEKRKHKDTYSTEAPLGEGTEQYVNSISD

[5] = biological target: T6, Sentrin-specific protease 8 (Homo sapiens, UniProt Q96LD8); type: functional;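 note: luminescence read-out of SENP8 inhibition, dose-response confirmation following an ultra-high-throughput screen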
T6 sequence (Q96LD8 whole entry): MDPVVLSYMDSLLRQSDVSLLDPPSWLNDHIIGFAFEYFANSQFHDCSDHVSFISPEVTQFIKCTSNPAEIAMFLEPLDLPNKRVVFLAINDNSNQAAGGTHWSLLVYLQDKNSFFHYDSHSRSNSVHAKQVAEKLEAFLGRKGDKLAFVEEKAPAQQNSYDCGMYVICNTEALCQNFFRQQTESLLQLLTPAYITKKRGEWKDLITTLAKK

[6] = biological target: T7, Polyadenylate-binding protein 1 (Homo sapiens, UniProt P11940); test: MLLE binding blockers, Cy5 peptide tracer – biochemical, fluorescence polarization, Cy5-PAM2 peptide, secondary, miRNA deadenylation inhibitor project, dose response (AID 602260); type: functional; settings: read-out: IC50_Mean
[7] = biological target: T7, Polyadenylate-binding protein 1; test: MLLE domain peptide-binding blockers, IC50 – biochemical, fluorescence polarization, FITC-PAM2 peptide, dose response (AID 602259); type: functional; settings: read-out: IC50_Mean
[8] = Luminescence Cell-Based Dose Response HTS to Identify Activators of Luciferase Translation or Activity in H4 […] Cells. [Related pubchem assays: 1829 (Project Summary), 1814 (Primary HTS)]; type: functional
H4 = test: Luminescence Cell-Based Dose Response HTS to Identify Activators of 5'UTR Stem-Loop Driven Prion Protein mRNA Translation in H4 Neuroglioblastoma Cells. [Related pubchem assays: 1829 (Project Summary), 1814 (Primary HTS)]; type: functional; settings: Homo sapiens
Streptococcus = test: GAS UMAA2166 growth inhibition – luminescence, BacTiterGlo, counter-screen for streptokinase expression inhibitor project, dose response (AID 1915); type: functional, organism-based;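 note: potency for reduction of bacterial viability or growth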
Streptokinase A = biological target: T8, Streptokinase A (Streptococcus pyogenes serotype M1, UniProt P10520); test: viability-normalized secreted streptokinase activity reduction – plasminogen activation absorbance, OD405, dose response (AID 1914); type: functional, Streptococcus pyogenes M1 GAS;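 note: secreted streptokinase activity via plasminogen activation per viability signal from cell pellet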
T8 sequence (P10520 whole entry): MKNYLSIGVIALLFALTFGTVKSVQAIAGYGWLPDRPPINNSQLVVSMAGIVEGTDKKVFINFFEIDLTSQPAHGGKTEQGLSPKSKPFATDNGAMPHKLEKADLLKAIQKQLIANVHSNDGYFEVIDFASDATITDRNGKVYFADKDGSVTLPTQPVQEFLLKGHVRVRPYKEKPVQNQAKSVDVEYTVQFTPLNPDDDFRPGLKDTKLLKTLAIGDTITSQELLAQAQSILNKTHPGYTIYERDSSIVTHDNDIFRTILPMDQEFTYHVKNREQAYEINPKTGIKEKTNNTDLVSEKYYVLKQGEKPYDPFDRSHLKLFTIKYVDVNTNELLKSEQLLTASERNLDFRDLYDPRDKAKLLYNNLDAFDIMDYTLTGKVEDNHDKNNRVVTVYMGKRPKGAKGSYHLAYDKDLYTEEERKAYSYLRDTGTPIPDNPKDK

[9] = Luminescence Cell-Based Dose Confirmation HTS to Identify Activators of 5'UTR Stem-Loop Driven Alpha-Synuclein mRNA Translation in H4 Neuroglioblastoma Cells. [Related pubchem assays: 1829 (Project Summary), 1814 (Primary HTS)]; type: functional
[10] = tested on: Streptococcus sp. 'group A'; test: Streptococcus pyogenes SK(-)GAS viability under kanamycin – luminescence, BacTiterGlo, confirmation, counter-screen for streptokinase expression inhibitor project, dose response (AID 1900); type: functional, organism-based
Cytochrome P450 2C9 = Cytochrome P450 2C9 (Homo sapiens, UniProt P11712)
Sequence of Cytochrome P450 2C9 (P11712 whole entry): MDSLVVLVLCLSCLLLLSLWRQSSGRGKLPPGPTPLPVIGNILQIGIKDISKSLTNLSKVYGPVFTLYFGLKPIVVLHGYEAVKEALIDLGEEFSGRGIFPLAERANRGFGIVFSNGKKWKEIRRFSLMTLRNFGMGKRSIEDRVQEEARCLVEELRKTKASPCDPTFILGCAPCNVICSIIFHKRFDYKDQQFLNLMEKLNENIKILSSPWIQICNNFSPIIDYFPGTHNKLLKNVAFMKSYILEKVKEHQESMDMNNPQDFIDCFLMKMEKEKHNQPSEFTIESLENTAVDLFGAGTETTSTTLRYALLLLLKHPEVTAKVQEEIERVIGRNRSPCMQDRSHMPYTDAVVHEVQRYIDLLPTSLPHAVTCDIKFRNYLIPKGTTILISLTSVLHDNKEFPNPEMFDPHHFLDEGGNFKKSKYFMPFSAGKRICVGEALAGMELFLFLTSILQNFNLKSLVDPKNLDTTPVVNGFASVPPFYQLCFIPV

T7 sequence (P11940 whole entry, the tested form may be a part): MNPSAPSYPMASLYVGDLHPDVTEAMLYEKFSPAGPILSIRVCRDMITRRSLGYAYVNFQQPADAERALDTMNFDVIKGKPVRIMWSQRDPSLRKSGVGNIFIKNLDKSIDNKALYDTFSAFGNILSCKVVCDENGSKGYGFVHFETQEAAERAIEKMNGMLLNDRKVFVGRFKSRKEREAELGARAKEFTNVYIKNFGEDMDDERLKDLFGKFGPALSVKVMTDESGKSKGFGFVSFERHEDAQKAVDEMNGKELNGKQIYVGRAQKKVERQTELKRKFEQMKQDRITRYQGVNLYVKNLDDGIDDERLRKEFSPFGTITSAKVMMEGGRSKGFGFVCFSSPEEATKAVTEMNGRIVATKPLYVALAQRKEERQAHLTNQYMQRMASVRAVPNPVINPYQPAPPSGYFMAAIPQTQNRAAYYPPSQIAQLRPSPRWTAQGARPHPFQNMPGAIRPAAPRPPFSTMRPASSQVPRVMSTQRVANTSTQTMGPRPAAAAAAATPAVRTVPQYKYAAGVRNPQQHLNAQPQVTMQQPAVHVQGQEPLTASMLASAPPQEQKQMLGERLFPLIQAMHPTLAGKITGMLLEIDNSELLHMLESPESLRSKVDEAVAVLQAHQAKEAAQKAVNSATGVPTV

For `Cc1ccc2[nH]c3c(C)c4ccncc4c(C)c3c2c1`, the GI50 (P388) was 0.394 µM (active), the GI50 (P388/ADR) was 0.933 µM (active) and the GI50 (SN12K1) was 0.927 µM (active).

With `CCCCCn1cc2c3c(cccc31)C1C=C(C)CN(C)[C@@H]1C2.Cc1ccc(C(=O)OC(C(=O)O)C(OC(=O)c2ccc(C)cc2)C(=O)O)cc1` (stereo unspecified) the GI50 (P388) was 2.63 µM (inactive), the GI50 (P388/ADR) was 3.18 µM (inactive) and the GI50 (SN12K1) was 3.56 µM (inactive).

With `COc1ccc(CNC(=O)c2cc3c(=O)n4ccccc4nc3n(Cc3cccnc3)c2=N)cc1` the EC50 [1] was 47.3 µM (inactive) and the EC50 [2] was 55.4 µM (inactive).

With `C/C=C1/C(=O)O[C@]23C=C[C@@H]4C(C(=O)OC)=CO[C@H](O[C@@H]12)[C@@H]43` [PLUMERICIN] the GI50 (P388) was 0.105 µM (active), the GI50 (P388/ADR) was 0.0853 µM (active) and the GI50 (SN12K1) was 1.09 µM (active).

With `CCN(CCNc1ccc([N+](=O)[O-])c2cccnc12)S(=O)(=O)c1ccccc1` the EC50 [1] was > 99 µM (inactive) and the EC50 [2] was > 99 µM (inactive).

With `CCCOc1ccc(-c2nnc(-c3ccco3)o2)cc1` the IC50 (Protein skinhead-1) was 64 µM (inactive), the IC50 [3] was 11.6 µM (active) and the IC50 (Caspase-3) was 17.4 µM (active). For the same molecule, the IC50 [4] was 22.4 µM (active) and the IC50 [5] was 25.8 µM (active).

In the case of `O=C(c1ccc(F)cc1)n1c(=S)nc2ccccn21`, the IC50 [3] is reported as 18.1 µM (active), the IC50 (Caspase-3) is reported as 52.2 µM (active) and the IC50 [4] is reported as 60.4 µM (active). For the same molecule, the IC50 [6] was > 66 µM (inactive), the IC50 [7] was > 66 µM (inactive) and the IC50 [5] was 86.1 µM (active).

For `COCCCn1c(=O)/c(=C/c2ccccc2OC(F)F)s/c1=C(\C#N)C(=O)NCCOC`, the EC50 [1] was > 99 µM (inactive) and the EC50 [2] was > 99 µM (inactive).

With `O=C1/C(=C/Nc2ccc(O)cc2)c2ccccc2C(=O)N1Cc1ccccc1` the EC50 [8] was 39.6 µM (active), the EC50 (H4) was 33 µM (active) and the EC50 [1] was 44.3 µM (inactive). For the same molecule, the EC50 (Streptococcus) was 14.6 µM (active), the EC50 [2] was > 99 µM (inactive) and the EC50 (Streptokinase A) was 18.6 µM (active). The EC50 [9] was 17.7 µM (active) and the EC50 [10] was 6.51 µM (active).

In the case of `CCOC(=O)c1sc(NC(=O)c2ccc3nc[nH]c3c2)nc1C`, the IC50 [3] is reported as 2.47 µM (active), the IC50 (Caspase-3) is reported as 7.1 µM (active) and the IC50 [4] is reported as 5.17 µM (active). The IC50 [5] was 3.4 µM (active).

For `Cc1ccc(OCC(=O)Nc2ccc(Cl)cc2)c(-n2nc3ccccc3n2)c1`, the EC50 [1] was > 99 µM (inactive), the AC50 (Cytochrome P450 2C9) was 2 µM (inconclusive) and the EC50 [2] was > 99 µM (inactive).

Source: ChEMBL document CHEMBL1201862, “PubChem BioAssay data set” (2004)
